Assay results published in ChEMBL document CHEMBL4049422, “Discovery of Novel Indazole Derivatives as Orally Available β3-Adrenergic Receptor Agonists Lacking Off-Target-Based Cardiovascular Side Effects” (J Med Chem, 2017).

Legend:
[1] = target: Beta-1 adrenergic receptor (Homo sapiens, UniProt P08588); assay: Agonist activity at recombinant human beta1 adrenergic receptor expressed in CHO cells assessed as accumulation of cyclic AMP after 30 mins; type: cell-based
CYP2C9 = CYP2C9 (Homo sapiens, UniProt P11712); assay: Inhibition of CYP2C9 (unknown origin) at 10 uM relative to control; type: ADME
Rattus norvegicus = assay: Cardiotoxicity in Sprague-Dawley rat assessed as increase in heart beat rate at 3 mg/kg, iv after 30 mins (reference value: 1.8 +/- 0.9%); type: toxicity, organism-based; conditions: in vivo, 0.5 h

Sequence of CYP2C9 (P11712 whole entry): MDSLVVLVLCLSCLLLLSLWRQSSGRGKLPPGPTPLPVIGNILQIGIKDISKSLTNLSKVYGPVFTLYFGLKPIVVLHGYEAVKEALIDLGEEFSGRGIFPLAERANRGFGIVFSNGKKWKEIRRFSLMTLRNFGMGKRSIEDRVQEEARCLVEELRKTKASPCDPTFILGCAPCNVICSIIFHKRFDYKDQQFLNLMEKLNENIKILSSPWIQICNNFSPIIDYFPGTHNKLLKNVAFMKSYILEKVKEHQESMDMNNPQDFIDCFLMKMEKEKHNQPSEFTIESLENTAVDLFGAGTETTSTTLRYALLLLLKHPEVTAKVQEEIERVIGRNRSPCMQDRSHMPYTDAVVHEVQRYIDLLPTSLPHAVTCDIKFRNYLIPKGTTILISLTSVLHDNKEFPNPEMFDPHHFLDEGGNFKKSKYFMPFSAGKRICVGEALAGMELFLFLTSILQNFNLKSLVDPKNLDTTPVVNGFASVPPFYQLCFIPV
Sequence of Beta-1 adrenergic receptor (P08588 whole entry): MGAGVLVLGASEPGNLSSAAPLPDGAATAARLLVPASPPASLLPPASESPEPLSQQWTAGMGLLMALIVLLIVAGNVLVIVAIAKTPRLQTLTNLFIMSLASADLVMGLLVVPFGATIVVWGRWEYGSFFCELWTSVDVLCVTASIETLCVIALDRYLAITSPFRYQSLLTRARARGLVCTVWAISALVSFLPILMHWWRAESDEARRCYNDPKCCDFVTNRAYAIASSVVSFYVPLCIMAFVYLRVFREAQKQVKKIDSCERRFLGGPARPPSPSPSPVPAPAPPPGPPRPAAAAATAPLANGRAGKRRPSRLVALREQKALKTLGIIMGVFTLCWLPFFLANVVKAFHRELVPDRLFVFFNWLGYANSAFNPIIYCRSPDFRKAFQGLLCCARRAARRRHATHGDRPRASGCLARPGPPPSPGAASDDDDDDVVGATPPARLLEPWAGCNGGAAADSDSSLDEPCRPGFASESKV

Cc1n[nH]c2cc(OCCNC[C@H](O)c3cccc(NS(=O)(=O)C4CCC4)c3)ccc12
EC50 [1]: > 10 µM
inhibition at 10 µM (CYP2C9): < 34%
Activity (Rattus norvegicus): 5.8%
